# Assay results: US20090018156A1, “Pyrrolo [2,3,B] Pyridine Derivatives Useful As RAF Kinase Inhibitors” (priority 2006, published 2009)
# Like-named read-outs stand apart in the source and are kept apart here.
# Tested on: B-Raf mediated phosphorylation of MEK1
# Experiment: Cellular assay of B-Raf mediated phosphorylation of MEK1 in co-transfected 3T3 cells
# Type: cell-based
# Conditions: Mus musculus, NIH3T3, 2 h, two hours exposure, anti-phospho-MEK1/2 immunoassay
# Description: B-Raf mediated phosphorylation of MEK1 was measured in a cellular assay. Expression constructs for B-Raf and FLAG-tagged MEK1 (a B-raf substrate) were co-transfected in 3T3 cells and gene expression was induced using the GeneSwitch™ system for inducible mammalian expression (Invitrogen). Four hours following the induction of expression of B-Raf and MEK1, cells were exposed to the test compounds for two hours. The cells were then lysed, and then an immunoassay was performed using anti-phospho-MEK1/2 (Cell Signaling Technlogoies) to detect the percent inhibition of MEK1 phosphorylation.
# [1] = 3T3 cells co-transfected with B-Raf and FLAG-tagged MEK1, read-out: Potency (IC50, inhibition of MEK1 phosphorylation)
# [2] = read-out: Potency (IC50, inhibition of MEK1 phosphorylation), 3T3 cells co-transfected with B-Raf and FLAG-tagged MEK1
IC50 [1],IC50 [2],SMILES
–,< 6 µM,"CCn1cc(-c2ccnc3[nH]ccc23)c(-c2cccc(NC(=O)NC3CCCCC3)c2)n1 [Example 8, N-Cyclohexyl-N-{3-[1-ethyl-4-(1H-pyrrolo[2,3-b]pyridin-4-yl)-1H-pyrazol-3-yl]phenyl}urea]"
–,< 6 µM,"CCn1cc(-c2ccnc3[nH]ccc23)c(-c2cccc(NC(=O)NCc3ccccc3)c2)n1 [Example 9, N-{3-[1-Ethyl-4-(1H-pyrrolo[2,3-b]pyridin-4-yl)-1H-pyrazol-3-yl]phenyl}-N-(phenylmethyl)urea]"

# The remaining lines, values behind:
SMILES,IC50 [1],IC50 [2]
"CCn1cc(-c2ccnc3[nH]ccc23)c(-c2cccc(NC(=O)Nc3c(F)cccc3F)c2)n1 [Example 6, N-(2,6-Difluorophenyl)-N-{3-[1-ethyl-4-(1H-pyrrolo[2,3-b]pyridin-4-yl)-1H-pyrazol-3-yl]phenyl}urea]",< 6 µM,–
"CCn1cc(-c2ccnc3[nH]cc(Cl)c23)c(-c2cccc(NC(=O)Nc3ccccc3)c2)n1 [Example 13, N-{3-[4-(3-Chloro-1H-pyrrolo[2,3-b]pyridin-4-yl)-1-ethyl-1H-pyrazol-3-yl]phenyl}-N-phenylurea]",> 6 µM,–
"CCn1cc(-c2ccnc3[nH]cc(Br)c23)c(-c2cccc(NC(=O)Nc3ccccc3)c2)n1 [Example 14, N-{3-[4-(3-Bromo-1H-pyrrolo[2,3-b]pyridin-4-yl)-1-ethyl-1H-pyrazol-3-yl]phenyl}-N-phenylurea]",< 6 µM,–
